Measured values taken from US5242945A, “Tetronic and thiotetronic acid derivatives as phospholipase A2 inhibitors” (American Home Products Corporation, priority 1991, dated 1993).

Tested on: lipoxygenase and/or cyclooxygenase pathways of arachidonic acid metabolism
Experiment: in vivo murine zymosan peritonitis assay
Set-up: species or system mouse (CD-1)
Conditions: 100 mg/kg p.o.; negative values denote potentiation
Method: The compounds of the invention are evaluated for their ability to inhibit the lipoxygenase and/or cyclooxygenase pathways of arachidonic acid metabolism in the in vivo murine zymosan peritonitis assay.
Male CD-1 mice (8 weeks old) are placed in plastic boxes in groups of six. Animals are injected with 1 mL i.p. of either 1% zymosan in pyrogen free 0.9% saline or saline (unstimulated control). Compounds are dosed orally 1 hour prior to zymosan injection. Twenty minutes after zymosan injection, the mice are asphyxiated by CO2 inhalation and the peritoneal cavity is lavaged with 2 mL ice cold Hanks Balanced Salt Solution (HBSS) without CaCl2, MgSO4. 7H2 O and MgCl2.6H2 O. Peritoneal lavage fluid from each mouse is removed by syringe and placed in 5 mL plastic test tubes put on ice and volume is noted. Preparation of samples for evaluation by ELISA is as follows: Samples are centrifuged at 800 xg for 15 minutes; 1 mL of the supernatant is added to 8 mL ice cold methanol and kept at -70° C. overnight to precipitate protein; and samples are then centrifuged at 800 xg for 15 minutes, followed by a drying procedure in a Savant speed vac concentrator. The samples are reconstituted with 1 mL ice cold ELISA buffer and stored at -70° C. until assayed. The assay for eicosanoids (LTC4 and 6-keto-PGF1α) is performed according to conventional ELISA procedures.
Compounds to be tested orally are suspended in 0.5% Tween 80. Compounds to be tested intraperitoneally are suspended in 0.5% methylcellulose in 0.9% saline.
The total metabolite level in lavage fluid/mouse is calculated and the significance is determined by a one-way analysis of variance with LSD comparisons to control (p≤0.05). Drug effects are expressed as a percent change from control values.

CCCCCCCCCC(=O)C1=C(O)COC1=O [Example 1, 4-Hydroxy-3-(1-oxodecyl)-2(5H)-furanone]
% Inhibition 6-keto-PGF: -58% | % Inhibition LTC4: -58%
